PubChem BioAssay (NCI)
Where “and” joins values, the source holds several entries; their conditions need not be identical. Equal entries are not always repeated.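 Results reflect a 48-hour exposure of cells in 96-well plates to compound at five concentrations. At the GI50, growth is halved. TGI denotes the concentration required for complete inhibition of growth.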

How the values were obtained:
Assay in all cases: NCI anticancer screen, dose series, 48 h
NCI-H23 lung = tested on: NCI-H23 lung
CAKI-1 renal = tested on: CAKI-1 renal
MOLT-4 leukemia = tested on: MOLT-4 leukemia
IGROV1 ovarian = tested on: IGROV1 ovarian
SN12C renal = tested on: SN12C renal
NCI-H226 lung = tested on: NCI-H226 lung
CCRF-CEM leukemia = tested on: CCRF-CEM leukemia
HS 578T breast = tested on: HS 578T breast
RPMI-8226 leukemia = tested on: RPMI-8226 leukemia
T-47D breast = tested on: T-47D breast

Compound	TGI (NCI-H23 lung)	TGI (CAKI-1 renal) [µM]	TGI (MOLT-4 leukemia) [µM]	TGI (IGROV1 ovarian)	TGI (SN12C renal) [µM]	TGI (NCI-H226 lung) [µM]	TGI (CCRF-CEM leukemia)	TGI (HS 578T breast) [µM]	TGI (RPMI-8226 leukemia)	GI50 (NCI-H23 lung)	GI50 (CAKI-1 renal) [µM]	GI50 (MOLT-4 leukemia)	GI50 (RPMI-8226 leukemia)	GI50 (IGROV1 ovarian)	GI50 (SN12C renal) [µM]	GI50 (NCI-H226 lung) [µM]	GI50 (CCRF-CEM leukemia)	GI50 (HS 578T breast) [µM]	GI50 (T-47D breast) [µM]	TGI (T-47D breast) [µM]
NC(=S)N=Nc1c(O)[nH]c2c(Cl)cc(Cl)cc12	> 100 µM	> 100	67.8	> 100 µM	52.8	30.3	> 100 µM	72.5												
O=C1CC(c2c(-c3ccccc3)[nH]c3ccccc23)C(=O)N1c1ccccc1 (stereo not drawn)	> 100 µM	> 100	> 100	> 100 µM		> 100	> 100 µM		> 100 µM											
C=C1c2ccccc2C(=O)c2c1c1c(C(=O)OC)c(OC(=O)OCc3ccc([N+](=O)[O-])cc3)ccc1n2Cc1ccccc1	17.9 µM	58.2	11.6	41.9 µM	42.6	44.1	6.83 µM	> 100	13.1 µM	4.22 µM	20.3	2.6 µM	2.3 µM	14 µM	11	19.6	1.78 µM	4.69		
COc1ccc(C(C)c2cc(OC)c(OC)c(OC)c2)cc1 (stereo not drawn)	> 50 µM		> 50	> 50 µM	> 50	> 50	> 50 µM	> 50	> 50 µM	0.292 µM		0.264 µM	0.209 µM	0.278 µM	0.546	46.5	0.182 µM	0.244		
Cc1cc(N(CCC#N)CCC#N)ccc1N=Nc1cc(Cl)ccc1Cl	28.1 µM	9.68	34.9	28.6 µM	27.1	25.2	19.2 µM		34.7 µM											
CCOC(=O)C1C=C2O[C@@H]3OC4(CCCCC4)O[C@@H]3C2C2C(=O)CCC(=O)[C@@]12C(=O)OC (stereo partly drawn)	> 100 µM	> 100	> 100	> 100 µM	> 100	> 100	> 100 µM		> 100 µM											
O=C1/C(=C/c2ccc3c(c2)OCCO3)CCC/C1=C\c1ccc2c(c1)OCCO2		> 100	> 100	> 100 µM	54.9		> 100 µM		45.8 µM											
COC(=O)c1cccc2c3ccccc3c3ccccc3c12	54.7 µM	> 100	61.7	> 100 µM	> 100	> 100	72.8 µM													
CC1(C)CCCC2(C)C3C(O)CC2(C)C(O)C31 (stereo not drawn)	> 100 µM		> 100	> 100 µM	> 100	> 100	> 100 µM													
Cc1cccc(C)c1NC(=O)CCC/C(CC(=O)c1ccc(F)cc1)=N\NC(=O)C(=O)NN	> 100 µM	> 100	> 100	> 100 µM	> 100	> 100	> 100 µM		> 100 µM											
C1OC1CN1CCN(CC2CO2)CC1 (stereo not drawn)	> 81.2 µM	> 100	> 62.4	> 100 µM	> 100	> 100	> 100 µM		> 100 µM											
Cn1c(=O)nc2n(-c3ccc(Cl)cc3)c(-c3ccccc3)c(-c3ccccc3)nc-2c1=O	> 100 µM	> 100	53.4	> 100 µM	> 100	58.8	77.1 µM		71.1 µM											
[N-]=[N+]=NCCCn1c2c(c3ccc([N+](=O)[O-])cc3c1=O)C(=O)c1cc3c(cc1-2)OCO3	< 0.01 µM	< 0.0152		1.46 µM	0.95	2.34	0.0679 µM			< 0.01 µM	< 0.01	< 0.0374 µM		0.165 µM	< 0.0106	< 0.01	< 0.01 µM		0.656	> 100
CC1=CC(C)(c2c[nH]c3ccccc23)CC(C)(C)c2c1[nH]c1ccccc21 (stereo not drawn)	28.5 µM		27.6	36 µM	28.5	37.1	31.7 µM		38.9 µM											
COc1ccc(/C(C)=N/NC(=O)CSc2nc3ccccc3c(=O)n2CCc2ccc(S(N)(=O)=O)cc2)cc1	5.81 µM	4.53	84.2	3.98 µM	3.75	4.18	> 100 µM	6.2	10.6 µM	2.3 µM	2.07	4.2 µM	2.02 µM	1.97 µM	1.89	1.95	4.44 µM	2.24		
N#Cc1c(-c2ccccc2)cc(-c2ccc(N)cc2)[nH]c1=O	> 100 µM		> 100	> 100 µM	> 100	> 100	> 100 µM		> 100 µM											
CCc1cccc(C(C)C)c1NC(=O)CCl	> 100 µM	> 100	> 100	> 100 µM	> 100	> 100	> 100 µM		> 100 µM											
CCCCC(C)/C=C/C(=O)C1=C(O)/C(=C/C(=O)O)OC1=O (stereo not drawn)	> 100 µM		> 100	> 100 µM	> 100	> 100	> 100 µM		> 100 µM											

Compound	TGI (NCI-H23 lung)	TGI (CAKI-1 renal) [µM]	TGI (MOLT-4 leukemia) [µM]	TGI (IGROV1 ovarian)	TGI (SN12C renal) [µM]	TGI (NCI-H226 lung) [µM]	TGI (CCRF-CEM leukemia)	TGI (HS 578T breast) [µM]	TGI (RPMI-8226 leukemia)	GI50 (NCI-H23 lung)	GI50 (CAKI-1 renal) [µM]	GI50 (MOLT-4 leukemia)	GI50 (RPMI-8226 leukemia)	GI50 (IGROV1 ovarian)	GI50 (SN12C renal) [µM]	GI50 (NCI-H226 lung) [µM]	GI50 (CCRF-CEM leukemia)	GI50 (HS 578T breast) [µM]	GI50 (T-47D breast) [µM]	TGI (T-47D breast) [µM]
Nc1ccc(-c2cc(C(=O)Nc3nccs3)[nH]c(=S)n2)cc1	> 100 µM	> 100	> 100	> 100 µM	> 100	> 100	> 100 µM		> 100 µM											
O=C1C(=C2CCCC2)CCC1CN1CCCCC1 (stereo not drawn)	36.4 µM		41.9	36.3 µM	30.6		36.6 µM													
CCC/C=C\C=C\C1(NS(=O)(=O)c2ccc(C)cc2)CCC(C(C)(C)C)CC1 (stereo not drawn)	55 µM	61.9	24	87.3 µM	23.5	38	24.2 µM		27.2 µM											
C[C@H]1C/C=C/[C@H]2[C@@H]3O[C@]3(C)[C@@H](C)[C@H]3[C@H](Cc4ccccc4)NC(=O)[C@]32OC(=O)O/C=C/[C@@](C)(O)C1=O		0.0428		> 33.5 µM and 125 µM and > 250 µM			67.7 µM and 84.6 µM and 71.5 µM		76.2 µM and 44.9 µM and 32.2 µM	0.17 µM and 0.13 µM		0.289 µM and 0.052 µM	0.235 µM and 0.0493 µM	0.0703 µM and 0.0723 µM and 0.025 µM	< 0.025	0.025	0.0125 µM and 0.025 µM			
Cc1ccc(S(=O)(=O)NC(=O)NCCc2ccccc2)cc1	> 100 µM	> 100	> 100	> 100 µM	> 100	> 100	> 100 µM		> 100 µM											
NCCCOc1cc2ccccc2cc1C(=O)Nc1ccc(Cl)cc1OC(=O)c1cc2ccccc2cc1OCCCN	1.2 µM	4.12	3.66		2.23		1.39 µM			0.387 µM	1.4	0.468 µM			0.742		0.413 µM		0.282	1.02
CCOC(=O)C(=O)Nc1cc(Cl)c(Cl)cc1Cl	> 100 µM	> 100	> 100	> 100 µM	> 100	> 100			> 100 µM											
O=[P+](O)c1ccccn1	> 100 µM	> 100	> 100	> 100 µM	> 100	> 100	> 100 µM		> 100 µM											
S=c1o[nH]c(-c2ccccc2)c1C=Nc1ccccc1	> 100 µM	> 100	> 100	> 100 µM	> 100		> 100 µM		> 100 µM											
Cc1ccccc1NC(=O)/C=N/O	> 100 µM	> 100	> 100	> 100 µM	> 100	> 100			> 100 µM											
CN(C)CCC(/C=C/c1ccccc1)=N\Nc1ccc(Cl)c(Cl)c1	8.93 µM	7.03	6.63	10.1 µM	13.7		10.1 µM		9.53 µM											
COC(=O)CCC(=O)N1C/C(=C\c2ccccc2)C(=O)/C(=C/c2ccccc2)C1	4.35 µM	3.22	7.77	3.94 µM	3.44	13.5	> 100 µM		> 100 µM											
Nc1ncnc2c1ncn2C1OC(COS(N)(=O)=O)C(O)C1O (stereo not drawn)	0.00558 µM and 0.0546 µM		0.109	0.00781 µM and 0.065 µM		0.00398	0.173 µM		0.265 µM and 0.0661 µM			0.0219 µM	0.00287 µM and 0.0283 µM	0.00291 µM and 0.0248 µM	< 0.001	0.00203				
Cc1coc2c1C(=O)C(=O)c1ccccc1-2	4.09 µM	3.63	6.03	3.44 µM	2.12	2.55	5.49 µM													
CCCCCCCCOCC(O)CO (stereo not drawn)	> 100 µM	> 100	> 100	> 100 µM	> 100	> 100	65 µM		> 100 µM											
CC(C)(C)OP(=O)(OC(C)(C)C)C(O)c1ccc(/C=C(\C#N)C(N)=O)cc1 (stereo not drawn)	> 100 µM	> 100	> 100	> 100 µM	> 100	> 100	> 100 µM		> 100 µM											
C/C(=N\NC(N)=S)c1ccc(C)c(C)c1	> 100 µM	> 100	90.2	> 100 µM	> 100	> 100	> 100 µM		> 100 µM											
